Species on record: Rattus norvegicus
Experiment: DrugMatrix - Regimen: Daily Repeat
Type: toxicity, organism-based, Sprague-Dawley
Design: regimen Daily Repeat, gender Male, age 6-8 weeks
Conditions: in vivo, po, route oral GAVAGE, vehicle .5 % CMC; for ABSOLUTE BASOPHIL / ABSOLUTE EOSINOPHIL / ABSOLUTE LYMPHOCYTE / ABSOLUTE MONOCYTE / ABSOLUTE SEGMENTED NEUTROPHIL / BASOPHIL / EOSINOPHIL / ERYTHROCYTE COUNT / HEMATOCRIT / HEMOGLOBIN / LEUKOCYTE COUNT / LYMPHOCYTE / MEAN CORPUSCULAR HEMOGLOBIN / MEAN CORPUSCULAR HEMOGLOBIN CONCENTRATION / MEAN CORPUSCULAR VOLUME / MONOCYTE / NEUTROPHIL / NUCLEATED RED BLOOD CELLS / PLATELET COUNT: tissue Blood; for ALANINE AMINOTRANSFERASE / ALBUMIN / ALKALINE PHOSPHATASE / ASPARTATE AMINOTRANSFERASE / BLOOD UREA NITROGEN / CARBON DIOXIDE / CHLORIDE / CHOLESTEROL / CREATINE PHOSPHOKINASE / CREATININE / GLUCOSE / LACTATE DEHYDROGENASE / LIPASE / PHOSPHORUS / POTASSIUM / SODIUM / TOTAL BILIRUBIN / TOTAL PROTEIN / URIC ACID: tissue Plasma
[1] = 0 mg/kg, 72 h, dose level Control, time 3 day
[2] = 0 mg/kg, 120 h, dose level Control, time 5 day
[3] = 16 mg/kg, 72 h, dose level Low, time 3 day

CCOC(=O)OC(C)OC1=C(C(=O)Nc2ccccn2)N(C)S(=O)(=O)c2ccccc21 (centres undefined) [AMPIROXICAM]
ABSOLUTE BASOPHIL [1]: 0 CELLS/uL
ABSOLUTE EOSINOPHIL [1]: 15.17 CELLS/uL
ABSOLUTE LYMPHOCYTE [1]: 10149.83 CELLS/uL
ABSOLUTE MONOCYTE [1]: 193.33 CELLS/uL
ABSOLUTE SEGMENTED NEUTROPHIL [1]: 1575 CELLS/uL
BASOPHIL [1]: 0%
EOSINOPHIL [1]: 0.17%
ERYTHROCYTE COUNT [1]: 5.53 x10E6/uL
HEMATOCRIT [1]: 34.7%
HEMOGLOBIN [1]: 12.78 G/DL
LEUKOCYTE COUNT [1]: 11.93 x10E3/uL
LYMPHOCYTE [1]: 85.5%
MEAN CORPUSCULAR HEMOGLOBIN [1]: 23.15 pg
MEAN CORPUSCULAR HEMOGLOBIN CONCENTRATION [1]: 36.9 G/DL
MEAN CORPUSCULAR VOLUME [1]: 62.82 fL
MONOCYTE [1]: 1.5%
NEUTROPHIL [1]: 12.83%
NUCLEATED RED BLOOD CELLS [1]: 0.5 /100WBC
PLATELET COUNT [1]: 994.17 x10E3/uL
ALANINE AMINOTRANSFERASE [1]: 48.17 u/L
ALBUMIN [1]: 4.37 G/DL
ALKALINE PHOSPHATASE [1]: 436.5 u/L
ASPARTATE AMINOTRANSFERASE [1]: 83.17 u/L
BLOOD UREA NITROGEN [1]: 14.67 mg/dL
CARBON DIOXIDE [1]: 30.83 mmol/L
CHLORIDE [1]: 99.17 MEQ/L
CHOLESTEROL [1]: 86.33 mg/dL
CREATINE PHOSPHOKINASE [1]: 243.33 u/L
CREATININE [1]: 0.25 mg/dL
GLUCOSE [1]: 158 mg/dL
LACTATE DEHYDROGENASE [1]: 262.33 u/L
LIPASE [1]: 11 u/L
PHOSPHORUS [1]: 12.07 mg/dL
POTASSIUM [1]: 6.52 MEQ/L
SODIUM [1]: 142.45 MEQ/L
TOTAL BILIRUBIN [1]: 0.17 mg/dL
TOTAL PROTEIN [1]: 6.25 G/DL
URIC ACID [1]: 1.42 mg/dL
ABSOLUTE BASOPHIL [2]: 0 CELLS/uL
ABSOLUTE EOSINOPHIL [2]: 0 CELLS/uL
ABSOLUTE LYMPHOCYTE [2]: 10076.67 CELLS/uL
ABSOLUTE MONOCYTE [2]: 124 CELLS/uL
ABSOLUTE SEGMENTED NEUTROPHIL [2]: 966 CELLS/uL
BASOPHIL [2]: 0%
EOSINOPHIL [2]: 0%
ERYTHROCYTE COUNT [2]: 5.57 x10E6/uL
HEMATOCRIT [2]: 33.37%
HEMOGLOBIN [2]: 12.73 G/DL
LEUKOCYTE COUNT [2]: 11.17 x10E3/uL
LYMPHOCYTE [2]: 90.33%
MEAN CORPUSCULAR HEMOGLOBIN [2]: 22.9 pg
MEAN CORPUSCULAR HEMOGLOBIN CONCENTRATION [2]: 38.18 G/DL
MEAN CORPUSCULAR VOLUME [2]: 59.97 fL
MONOCYTE [2]: 1%
NEUTROPHIL [2]: 8.67%
NUCLEATED RED BLOOD CELLS [2]: 0 /100WBC
PLATELET COUNT [2]: 1078 x10E3/uL
ALANINE AMINOTRANSFERASE [2]: 37.17 u/L
ALBUMIN [2]: 4.2 G/DL
ALKALINE PHOSPHATASE [2]: 322.17 u/L
ASPARTATE AMINOTRANSFERASE [2]: 67.67 u/L
BLOOD UREA NITROGEN [2]: 14 mg/dL
CARBON DIOXIDE [2]: 27.67 mmol/L
CHLORIDE [2]: 102.17 MEQ/L
CHOLESTEROL [2]: 67.67 mg/dL
CREATINE PHOSPHOKINASE [2]: 171.83 u/L
CREATININE [2]: 0.27 mg/dL
GLUCOSE [2]: 172 mg/dL
LACTATE DEHYDROGENASE [2]: 85.33 u/L
LIPASE [2]: 8.67 u/L
PHOSPHORUS [2]: 12 mg/dL
POTASSIUM [2]: 6.09 MEQ/L
SODIUM [2]: 144.82 MEQ/L
TOTAL BILIRUBIN [2]: 0.13 mg/dL
TOTAL PROTEIN [2]: 6.07 G/DL
URIC ACID [2]: 2.13 mg/dL
ABSOLUTE BASOPHIL [3]: 0 CELLS/uL
ABSOLUTE EOSINOPHIL [3]: 0 CELLS/uL
ABSOLUTE LYMPHOCYTE [3]: 13036.33 CELLS/uL
ABSOLUTE MONOCYTE [3]: 91.33 CELLS/uL
ABSOLUTE SEGMENTED NEUTROPHIL [3]: 1372.33 CELLS/uL
BASOPHIL [3]: 0%
EOSINOPHIL [3]: 0%
ERYTHROCYTE COUNT [3]: 5.36 x10E6/uL
HEMATOCRIT [3]: 33.57%
HEMOGLOBIN [3]: 12.5 G/DL
LEUKOCYTE COUNT [3]: 14.5 x10E3/uL
LYMPHOCYTE [3]: 89.33%
MEAN CORPUSCULAR HEMOGLOBIN [3]: 23.33 pg
MEAN CORPUSCULAR HEMOGLOBIN CONCENTRATION [3]: 37.23 G/DL
MEAN CORPUSCULAR VOLUME [3]: 62.67 fL
MONOCYTE [3]: 0.67%
NEUTROPHIL [3]: 10%
NUCLEATED RED BLOOD CELLS [3]: 0 /100WBC
PLATELET COUNT [3]: 1061.33 x10E3/uL
ALANINE AMINOTRANSFERASE [3]: 57.33 u/L
ALBUMIN [3]: 4.3 G/DL
ALKALINE PHOSPHATASE [3]: 431 u/L
ASPARTATE AMINOTRANSFERASE [3]: 100.67 u/L
BLOOD UREA NITROGEN [3]: 12.67 mg/dL
CARBON DIOXIDE [3]: 32.33 mmol/L
CHLORIDE [3]: 101.33 MEQ/L
CHOLESTEROL [3]: 86.33 mg/dL
CREATINE PHOSPHOKINASE [3]: 214.33 u/L
CREATININE [3]: 0.25 mg/dL
GLUCOSE [3]: 155.33 mg/dL
LACTATE DEHYDROGENASE [3]: 113.33 u/L
LIPASE [3]: 11.67 u/L
PHOSPHORUS [3]: 11.83 mg/dL
POTASSIUM [3]: 6.74 MEQ/L
SODIUM [3]: 145.43 MEQ/L
TOTAL BILIRUBIN [3]: 0.13 mg/dL
TOTAL PROTEIN [3]: 6.13 G/DL
URIC ACID [3]: 1.73 mg/dL

Reference: ChEMBL document CHEMBL3885881, “DrugMatrix”
